Test results as given in US4792559A, “1,2,3,4-tetrahydroquinoline substituted 5-aminopentanenitrile compounds and their use as calcium modulators” (ADIR et Compagnie, priority 1985, dated 1988).
“Also recorded” adds a separate entry of the source. Where two headings read alike, the source gives them in different places.

Legend:
aorta [1] = experiment: Isolated rat aorta rings stimulated with potassium-rich solution (K+ 100 mM), relaxation; parameters: species or system rat (male Wistar); details: aorta rings stimulated with K+ 100 mM, read-out: AORTA St:K+ IC50
Procedure: (§1) a. Study of isolated organs removed from rats
(§2) Male Wistar rats weighing from 350 to 400 g are used.
(§3) After rapid sacrifice of the animal, the following are removed:
(§4) the aorta, dissected and prepared in rings; after an equilibration period of 1 hour in the reference physiological solution (1), the prepared specimens are stimulated with a solution rich in potassium (K^+) (100 mM) or with noradrenaline (NA) (10^-6 M).
(§5) The substances to be tested are then added (test sample 0.2 ml) in cumulative doses every 15 minutes.
(§6) The relaxation values obtained permit an activity-dose curve to be constructed, enabling the IC50 to be calculated in M.
(§7) The characteristics of the solutions used are as follows: […]

aorta [2] = experiment: Isolated rat aorta rings stimulated with noradrenaline (10^-6 M), relaxation; parameters: species or system rat (male Wistar); details: read-out: AORTA St:NA IC50
Procedure: as §1, §2, §3, §4, §5, §6, §7

right auricle (RA) = experiment: Isolated right auricle, chronotropic effect; parameters: species or system rat (male Wistar); details: Rattus norvegicus
Procedure: as §1, §2
(§8) the right auricle (RA) and left auricle (LA) RA beats spontaneously.
(§9) Stabilisation is obtained in physiological liquid (2) after 30 minutes.
(§10) The substances to be tested are then added (test sample 0.2 ml) in cumulative doses every 15 minutes. The effects on RA are chronotropic. The effects on LA are inotropic. The construction of the activity-dose curves enables the IC50, expressed in M, to be measured.

left auricle (LA) = experiment: Isolated left auricle, inotropic effect; parameters: species or system rat (male Wistar); details: Rattus norvegicus; stimulated electrically at 3 Hz
Procedure: as §1, §2, §8
LA is stimulated electrically at a rate of 3 Hz (180 beats per min.) (amplitude of the stimulations: threshold×2).
as §9, §10

left auricle / aorta = experiment: Evaluation of myocardium/vessel selectivity (IC50 LA/IC50 aorta); parameters: species or system rat (male Wistar); details: for LA/AORTA SELECTIVITY (St:K+): IC50 LA/IC50 aorta, high values indicate vascular selectivity
From the text: c. Evaluation of myocardium/vessel selectivity
The IC50 LA/IC50 aorta ratio leads to a first evaluation; the high values indicate vascular selectivity.

calmodulin = calmodulin (Homo sapiens, UniProt P0DP23); experiment: Calcium calmodulin binding, fluorescence of dansylated calmodulin; details: for Kd/IC50 AORTA K+: close to 1 indicates vascular inhibition through calmodulin; for Kd: extrapolated to 0 calmodulin, read-out: Kd (cam); for mechanism indicated by the pharmacological effects: in vitro
Procedure: b. Fixation on calcium calmodulin binding
The orientations of synthesis which may lead to possibilities of inhibiting calmodulin are evaluated by measuring the fluorescence of dansylated calmodulin.
The substances to be tested are added to the experimental vessel (2 ml). The increase in fluorescence of dansylated calmodulin enables effect-dose curves to be constructed; measuring the EC50 gives an apparent Kd value. After extrapolation of the apparent Kd values to 0 calmodulin, the experiments carried out for different calcium-calmodulin concentration values enable the characteristic Kd values of the tested substances to be determined (Method proposed by Johnson and Wittenauer, 1983, Biochem., 211, 473-479).
d. Evaluation of the possibility of inhibition at the calmodulin level

[3] = tested on: aorta artery of the rat without endothelium; experiment: Contraction of rat aorta without endothelium by ionophore calcium A 23187; details: A 23187 at 5.10^-6 M
[4] = target: T1, Ca++ channels of membranes of transverse tubules in skeletal muscle (Homo sapiens, UniProt Q13698); experiment: Binding on Ca++ channels of membranes of transverse tubules in skeletal muscle
T1 construct: membranes of transverse tubules in skeletal muscle; from tissue; host or cells: skeletal muscle, transverse tubule membranes
From the text: (§11) C. Binding on Ca^++ channels of membranes of transverse tubules in skeletal muscle.

[5] = target: T2, Ca++ channels of membranes of transverse tubules in skeletal muscle; experiment: as above; details: transverse tubules in skeletal muscle; read-out: Kd for the Ca++ channel
T2 construct: membranes of transverse tubules in skeletal muscle; from tissue; host or cells: skeletal muscle, transverse tubule membranes
From the text: as §11

dogs = experiment: Haemodynamic study in anaesthetised dogs; type: in vivo, mongrel dogs; details: for dP/dt: Left ventricular pressure derivative, variation: measured at 20 minutes; for negative inotropic effect / cardiotropic effect / percentage increase in the PR duration: i.v., compared with Verapamil
Procedure: A haemodynamic study was carried out on mongrel dogs weighing from 25 to 30 kg, which were anaesthetised with sodium pentobarbital in a dose of 30 mg/kg i.v., intubated and ventilated, and subjected to a thoracotomy at the 5th left intercostal space.
The left and aortal ventricular pressures are measured by means of MILLAR probes introduced by the femoral artery route. The cardiac frequency is measured by Biotach Gould ECG (derivation D2); the gases of the aortal blood and of the coronary sinus are analysed by an ABL3 radiometer.
The products tested were injected by the femoral vein route.

[6] = spontaneously beating, read-out: RIGHT AURICLE (RA) (CHRONOTROPIC EFFECT) IC50

T2 sequence (Q13698 whole entry): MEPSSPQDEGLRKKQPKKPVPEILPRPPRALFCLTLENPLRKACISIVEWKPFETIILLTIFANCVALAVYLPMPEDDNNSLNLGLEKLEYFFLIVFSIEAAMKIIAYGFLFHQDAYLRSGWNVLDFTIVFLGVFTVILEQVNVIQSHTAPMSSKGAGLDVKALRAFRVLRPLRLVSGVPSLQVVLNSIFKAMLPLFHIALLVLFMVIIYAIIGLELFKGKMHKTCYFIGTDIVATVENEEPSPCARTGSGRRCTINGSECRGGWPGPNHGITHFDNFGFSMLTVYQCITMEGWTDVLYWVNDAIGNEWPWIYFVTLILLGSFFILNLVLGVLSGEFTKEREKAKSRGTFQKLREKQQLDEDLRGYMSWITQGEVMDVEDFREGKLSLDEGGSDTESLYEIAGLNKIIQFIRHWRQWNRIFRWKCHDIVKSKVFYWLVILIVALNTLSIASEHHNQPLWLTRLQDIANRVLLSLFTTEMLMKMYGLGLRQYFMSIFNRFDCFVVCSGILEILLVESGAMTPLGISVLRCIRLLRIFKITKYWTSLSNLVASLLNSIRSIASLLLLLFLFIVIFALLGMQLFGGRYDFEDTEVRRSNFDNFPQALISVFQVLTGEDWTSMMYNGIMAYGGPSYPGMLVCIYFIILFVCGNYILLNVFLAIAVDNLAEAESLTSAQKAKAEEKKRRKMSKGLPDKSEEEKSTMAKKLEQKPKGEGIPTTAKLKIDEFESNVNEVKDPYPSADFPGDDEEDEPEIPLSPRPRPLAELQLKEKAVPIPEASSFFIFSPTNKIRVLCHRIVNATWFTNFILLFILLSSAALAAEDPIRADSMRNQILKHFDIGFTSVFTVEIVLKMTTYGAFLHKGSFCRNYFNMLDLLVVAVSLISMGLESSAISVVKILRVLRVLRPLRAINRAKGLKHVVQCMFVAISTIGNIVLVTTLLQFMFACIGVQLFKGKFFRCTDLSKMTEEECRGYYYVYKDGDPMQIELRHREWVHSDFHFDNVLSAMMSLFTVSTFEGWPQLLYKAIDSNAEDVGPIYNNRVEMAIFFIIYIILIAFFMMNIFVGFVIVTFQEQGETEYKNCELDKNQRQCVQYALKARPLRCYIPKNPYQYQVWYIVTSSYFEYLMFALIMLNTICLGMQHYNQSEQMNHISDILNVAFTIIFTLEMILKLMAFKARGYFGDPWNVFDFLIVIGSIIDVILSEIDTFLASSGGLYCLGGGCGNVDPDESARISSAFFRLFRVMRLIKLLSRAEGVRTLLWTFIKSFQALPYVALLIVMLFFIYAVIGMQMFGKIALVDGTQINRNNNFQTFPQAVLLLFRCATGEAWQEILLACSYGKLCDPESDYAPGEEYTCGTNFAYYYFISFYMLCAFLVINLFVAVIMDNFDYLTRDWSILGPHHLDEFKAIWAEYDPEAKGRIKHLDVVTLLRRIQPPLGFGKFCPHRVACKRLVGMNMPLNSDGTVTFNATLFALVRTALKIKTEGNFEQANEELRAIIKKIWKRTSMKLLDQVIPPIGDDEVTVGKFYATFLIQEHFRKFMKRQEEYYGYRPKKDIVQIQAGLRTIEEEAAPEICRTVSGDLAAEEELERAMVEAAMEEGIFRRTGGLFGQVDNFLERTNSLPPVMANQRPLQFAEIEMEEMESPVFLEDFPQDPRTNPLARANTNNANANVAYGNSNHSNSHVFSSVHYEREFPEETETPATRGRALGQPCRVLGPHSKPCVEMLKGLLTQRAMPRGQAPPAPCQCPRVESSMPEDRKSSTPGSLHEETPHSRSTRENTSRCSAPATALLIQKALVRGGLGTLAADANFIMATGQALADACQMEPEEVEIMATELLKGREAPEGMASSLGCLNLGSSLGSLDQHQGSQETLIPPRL
T2 sequence (P54289 25-944 partner limits assumed): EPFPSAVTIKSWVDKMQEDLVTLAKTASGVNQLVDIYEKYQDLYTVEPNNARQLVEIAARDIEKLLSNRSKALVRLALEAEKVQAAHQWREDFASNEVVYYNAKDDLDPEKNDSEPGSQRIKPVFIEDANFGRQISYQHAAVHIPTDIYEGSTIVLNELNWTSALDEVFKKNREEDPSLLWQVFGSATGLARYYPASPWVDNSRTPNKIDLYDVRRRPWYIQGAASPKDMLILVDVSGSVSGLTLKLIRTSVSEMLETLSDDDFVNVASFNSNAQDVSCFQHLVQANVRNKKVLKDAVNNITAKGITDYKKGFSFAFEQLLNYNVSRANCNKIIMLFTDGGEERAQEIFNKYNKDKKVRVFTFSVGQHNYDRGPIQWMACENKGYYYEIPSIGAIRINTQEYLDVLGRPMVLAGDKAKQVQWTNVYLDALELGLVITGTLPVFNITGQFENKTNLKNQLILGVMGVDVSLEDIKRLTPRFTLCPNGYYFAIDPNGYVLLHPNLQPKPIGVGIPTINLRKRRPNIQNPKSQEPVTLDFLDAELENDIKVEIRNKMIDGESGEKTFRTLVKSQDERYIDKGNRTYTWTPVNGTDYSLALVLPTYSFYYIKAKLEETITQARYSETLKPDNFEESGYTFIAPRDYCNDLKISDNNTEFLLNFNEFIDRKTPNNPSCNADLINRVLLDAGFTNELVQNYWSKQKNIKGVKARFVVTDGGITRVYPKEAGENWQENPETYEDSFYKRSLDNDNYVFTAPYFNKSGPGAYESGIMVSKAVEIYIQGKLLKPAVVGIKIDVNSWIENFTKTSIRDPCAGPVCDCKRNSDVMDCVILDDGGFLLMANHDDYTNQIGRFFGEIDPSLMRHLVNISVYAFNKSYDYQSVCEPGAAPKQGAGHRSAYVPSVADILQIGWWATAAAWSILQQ
T2 sequence (P54289 945-1103 partner limits assumed): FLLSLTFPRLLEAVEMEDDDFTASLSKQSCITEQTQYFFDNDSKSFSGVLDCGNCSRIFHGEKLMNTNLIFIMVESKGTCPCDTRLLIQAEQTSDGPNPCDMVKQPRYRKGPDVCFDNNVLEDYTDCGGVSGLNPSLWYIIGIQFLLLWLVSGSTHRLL
T2 sequence (Q02641 whole entry partner): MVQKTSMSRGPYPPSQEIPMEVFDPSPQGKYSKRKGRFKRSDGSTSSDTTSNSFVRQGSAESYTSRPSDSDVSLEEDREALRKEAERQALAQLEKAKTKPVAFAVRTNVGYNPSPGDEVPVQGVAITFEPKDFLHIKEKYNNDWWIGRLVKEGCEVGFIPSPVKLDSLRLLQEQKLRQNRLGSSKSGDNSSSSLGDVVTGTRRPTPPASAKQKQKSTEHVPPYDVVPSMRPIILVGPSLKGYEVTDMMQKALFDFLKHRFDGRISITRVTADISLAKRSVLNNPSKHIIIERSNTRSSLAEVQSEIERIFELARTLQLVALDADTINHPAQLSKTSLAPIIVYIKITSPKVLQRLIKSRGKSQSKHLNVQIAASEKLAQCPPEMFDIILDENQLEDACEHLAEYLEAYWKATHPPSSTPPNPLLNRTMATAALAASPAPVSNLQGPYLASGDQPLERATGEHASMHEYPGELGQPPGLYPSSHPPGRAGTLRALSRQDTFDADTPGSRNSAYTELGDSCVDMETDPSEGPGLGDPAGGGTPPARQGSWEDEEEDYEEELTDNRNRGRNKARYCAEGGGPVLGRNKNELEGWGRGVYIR
T2 sequence (Q06432 whole entry partner): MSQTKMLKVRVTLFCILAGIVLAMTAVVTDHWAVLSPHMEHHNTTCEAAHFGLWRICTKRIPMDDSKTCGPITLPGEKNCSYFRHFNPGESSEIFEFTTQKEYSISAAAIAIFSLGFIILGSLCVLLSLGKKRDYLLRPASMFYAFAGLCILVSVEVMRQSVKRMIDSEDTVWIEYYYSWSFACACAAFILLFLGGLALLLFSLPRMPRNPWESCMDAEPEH
T1 sequence (Q13698 whole entry): as the sequence (Q13698 whole entry) above
T1 sequence (P54289 25-944 partner limits assumed): as the sequence (P54289 25-944 partner limits assumed) above
T1 sequence (P54289 945-1103 partner limits assumed): as the sequence (P54289 945-1103 partner limits assumed) above
T1 sequence (Q02641 whole entry partner): as the sequence (Q02641 whole entry partner) above
T1 sequence (Q06432 whole entry partner): as the sequence (Q06432 whole entry partner) above

IC50 (aorta [1]; Rattus norvegicus) [nM] | IC50 (aorta [2]) [nM] | IC50 (right auricle (RA); [6]) [nM] | IC50 (left auricle (LA)) [nM] | Kd/IC50 AORTA K+ (calmodulin) | Kd (calmodulin) [nM] | SMILES | LA/AORTA SELECTIVITY (St:K+) (left auricle / aorta) | AAP: Average arterial pressure, maximum variation (dogs; IV 100 μg/kg) [%] | ACF: Average coronary flow, maximum variation (dogs; IV 100 μg/kg) | CF: Cardiac frequency, maximum variation (dogs; IV 100 μg/kg) [%] | PO2 SC: PO2 coronary blood sinus, maximum variation (dogs; IV 100 μg/kg) | PR: PR space of the ECG, maximum variation (dogs; IV 100 μg/kg) | dP/dt: Left ventricular pressure derivative, variation (dogs; IV 100 μg/kg) [%] | AAP: Average arterial pressure, maximum variation (dogs; IV 300 μg/kg) [%] | ACF: Average coronary flow, maximum variation (dogs; IV 300 μg/kg) | CF: Cardiac frequency, maximum variation (dogs; IV 300 μg/kg) [%] | I/C: Myocardial O2 intake/consumption ratio, maximum variation (dogs; IV 300 μg/kg) | PO2 SC: PO2 coronary blood sinus, maximum variation (dogs; IV 300 μg/kg) | PR: PR space of the ECG, maximum variation (dogs; IV 300 μg/kg) | dP/dt: Left ventricular pressure derivative, variation (dogs; IV 300 μg/kg) [%] | further results
750 | 5500 | 10000 | 82000 | 1.08 | 810 | COc1cccc(C(C#N)(CCCN(C)CCc2ccc(OC)c3c2CCCN3C(C)=O)Sc2ccccc2)c1 (centres unmarked) [Example 1, 2-(3-methoxyphenyl)-2-phenylthio-5-{N-[(1-acetyl-8-methoxy-1,2,3,4-tetrahydroquinol-5-yl)ethyl]-N-methylamino}-pentanenitrile] | 100 | -9 | +109% | -10 | +36% | +7% | 0 | -24 | +117% | -14 | +118% | +63% | +19% | -3 | IC50 (aorta [1]): 600 nM; vascular selectivity (left auricle / aorta; compared with verapamil): this selectivity is greatest; also recorded: a greater selectivity in favour of vessels; affinity for calmodulin (calmodulin): an affinity for calmodulin coherent with the biological effect; mechanism indicated by the pharmacological effects (calmodulin): intracellular inhibitory mechanisms and, especially, a calcium-calmodulin inhibition mechanism; IC50 ([3]; Rattus norvegicus): ~1000 nM; affinity for calcium channels relative to verapamil [4]: ~20 times the one of verapamil; Kd [5]: 1 nM; AAP: Average arterial pressure, maximum variation (dogs; IV 30 μg/kg): 0%; ACF: Average coronary flow, maximum variation (dogs; IV 30 μg/kg): +54%; CF: Cardiac frequency, maximum variation (dogs; IV 30 μg/kg): -5%; I/C: Myocardial O2 intake/consumption ratio, maximum variation (dogs; IV 30 μg/kg): +19%; PO2 SC: PO2 coronary blood sinus, maximum variation (dogs; IV 30 μg/kg): +14%; PR: PR space of the ECG, maximum variation (dogs; IV 30 μg/kg): 0%; I/C: Myocardial O2 intake/consumption ratio, maximum variation (dogs; IV 100 μg/kg): +55%; negative inotropic effect / cardiotropic effect (dogs): absence of a negative inotropic effect; percentage increase in the PR duration (dogs): reduction in the percentage increase in the PR duration
600 | 13000 | 1500 | 8000 | 10.8 | 6500 | COc1ccc(C(C#N)(CCCN(C)CCc2ccc(OC)c3c2CCCN3C(C)=O)C(C)C)cc1OC (centres unmarked) [Example 4, 2-(3,4-dimethoxyphenyl)-2-isopropyl-5-{N-[(1-acetyl-8-methoxy-1,2,3,4-tetrahydroquinol-5-yl)ethyl]-N-methyl-amino}-pentanenitrile] | 13 |  |  |  |  |  |  | -14 | +84% | -17 | +83% | +47% | +27% | -2 | 
360 | 3000 | 2900 | 5500 | 0.66 | 240 | COc1ccc(C(C#N)(CCCN(C)CCc2ccc(OC)c3c2CCCN3C(C)=O)Sc2ccccc2)cc1OC (centres unmarked) [Example 7, 2-(3,4-dimethoxyphenyl)-2-phenylthio-5-{N-[(1-acetyl-8-methoxy-1,2,3,4-tetrahydroquinol-5-yl)ethyl]-N-methyl-amino}-pentanenitrile] | 15 |  |  |  |  |  |  | -16 | +77% | -7 | +52% | +36% | +15% | 0 | mechanism indicated by the pharmacological effects (calmodulin): intracellular inhibitory mechanisms and, especially, a calcium-calmodulin inhibition mechanism; AAP: Average arterial pressure, maximum variation (dogs; IV 1000 μg/kg): -36%; ACF: Average coronary flow, maximum variation (dogs; IV 1000 μg/kg): +132%; CF: Cardiac frequency, maximum variation (dogs; IV 1000 μg/kg): -11%; I/C: Myocardial O2 intake/consumption ratio, maximum variation (dogs; IV 1000 μg/kg): +107%; PO2 SC: PO2 coronary blood sinus, maximum variation (dogs; IV 1000 μg/kg): +49%; PR: PR space of the ECG, maximum variation (dogs; IV 1000 μg/kg): +37%; dP/dt: Left ventricular pressure derivative, variation (dogs; IV 1000 μg/kg): -3%; negative inotropic effect / cardiotropic effect (dogs): absence of a negative inotropic effect; percentage increase in the PR duration (dogs): reduction in the percentage increase in the PR duration
250 | 30000 | 1000 | 5200 | 97 | 34000 | COc1cccc(C(C#N)(CCCN(C)CCc2ccc(OC)c3c2CCCN3C(C)=O)C(C)C)c1 (centres unmarked) [Example 13, 2-(3-methoxyphenyl)-2-isopropyl-5-{N-[(1-acetyl-8-methoxy-1,2,3,4-tetrahydroquinol-5-yl)ethyl]-N-methyl-amino}-pentanenitrile] | 20 | -10 | +42% | -11 | +40% | +10% | 0 | -23 |  | -15 | +99% | +59% | +32% | -6 | I/C: Myocardial O2 intake/consumption ratio, maximum variation (dogs; IV 100 μg/kg): +45%

SMILES | IC50 (aorta [1]; Rattus norvegicus) [nM] | IC50 (aorta [2]) [nM] | IC50 (right auricle (RA); [6]) [nM] | IC50 (left auricle (LA)) [nM] | Kd/IC50 AORTA K+ (calmodulin) | Kd (calmodulin) [nM] | LA/AORTA SELECTIVITY (St:K+) (left auricle / aorta) | AAP: Average arterial pressure, maximum variation (dogs; IV 100 μg/kg) [%] | ACF: Average coronary flow, maximum variation (dogs; IV 100 μg/kg) | CF: Cardiac frequency, maximum variation (dogs; IV 100 μg/kg) [%] | PO2 SC: PO2 coronary blood sinus, maximum variation (dogs; IV 100 μg/kg) | PR: PR space of the ECG, maximum variation (dogs; IV 100 μg/kg) | dP/dt: Left ventricular pressure derivative, variation (dogs; IV 100 μg/kg) [%] | AAP: Average arterial pressure, maximum variation (dogs; IV 300 μg/kg) [%] | ACF: Average coronary flow, maximum variation (dogs; IV 300 μg/kg) | CF: Cardiac frequency, maximum variation (dogs; IV 300 μg/kg) [%] | I/C: Myocardial O2 intake/consumption ratio, maximum variation (dogs; IV 300 μg/kg) | PO2 SC: PO2 coronary blood sinus, maximum variation (dogs; IV 300 μg/kg) | PR: PR space of the ECG, maximum variation (dogs; IV 300 μg/kg) | dP/dt: Left ventricular pressure derivative, variation (dogs; IV 300 μg/kg) [%] | further results
COc1ccc(CCN(C)CCCC(C#N)(c2ccc(OC)c(OC)c2)C(C)C)cc1OC (centres unmarked) [Verapamil, verapamil, reference compound] | 800 | 14000 |  | 2000 |  |  |  | -16 | +87% | -9 | +42% | +14% | -5 | -21 | +99% | -8 |  | +71% | +40% | -13 | IC50 (right auricle (RA); read-out: RIGHT AURICLE (RA) (CH[…]) IC50): 2000 nM; activity on contraction by ionophore calcium A 23187 [3]: inactive; AAP: Average arterial pressure, maximum variation (dogs; IV 30 μg/kg): -5%; ACF: Average coronary flow, maximum variation (dogs; IV 30 μg/kg): +32%; CF: Cardiac frequency, maximum variation (dogs; IV 30 μg/kg): -4%; PO2 SC: PO2 coronary blood sinus, maximum variation (dogs; IV 30 μg/kg): +18%; PR: PR space of the ECG, maximum variation (dogs; IV 30 μg/kg): +6%
